Patent US7531554B2, “4-oxoquinoline compound and use thereof as HIV integrase inhibitor” (Japan Tobacco Inc., priority 2004, dated 2009)
pIC50: −log10 of the molar value. Structures can show the parent of a compound that is named as a salt.

Biological target: T1, HIV integrase (Human immunodeficiency virus type 1 group M subtype B, UniProt P12497, F1332H)
T1 construct: HIV integrase full length gene (J. Virol., 67, 425-437 (1993)) in which phenylalanine at codon 185 was substituted by histidine; made in house; host or cells: Escherichia coli BL21(DE3)
Assay: Determination of enzyme (HIV integrase) inhibitory activity
Type: biochemical
Conditions: recombinant integrase protein (F185H), donor DNA/target DNA, absorbance at 450 nm
Method: HIV integrase full length gene (J. Virol., 67, 425-437 (1993)) in which phenylalanine at codon 185 was substituted by histidine, was inserted between the restriction enzyme NdeI and XhoI sites of plasmid pET21a(+) (Novagen), whereby an integrase expression vector pET21a-IN-F185H was constructed.
Escherichia coli recombinant BL21(DE3) transformed with plasmid pET21a-IN-F185H obtained in (i) was shake cultured at 30° C. in a liquid medium containing ampicillin. When the culture reached the logarithmic growth phase, isopropyl-β-D-thiogalactopyranoside was added to promote expression of integrase gene. The culture was continued for 3 hr to promote accumulation of the integrase protein. The recombinant E. coli was collected in pellets by centrifugal separation and preserved at −80° C.
The E. coli was suspended in Lysis buffer (20 mM HEPES (pH 7.5), 5 mM DTT, 10 mM CHAPS, 10% glycerol) containing 1M sodium chloride and subjected to repeat pressurization and depressurization for rupture, and centrifugal separation at 4° C., 40,000×g, 60 min to recover a water-soluble fraction (supernatant). This was diluted 10-fold with Lysis buffer free of sodium chloride, mixed with SP-Sepharose (Pharmacia Corporation) and stirred at 4° C. for 60 min to allow adsorption of integrase protein to the resin. The resin was washed with Lysis buffer containing 100 mM sodium chloride and the integrase protein was eluted with Lysis buffer containing 1M sodium chloride.
The eluted integrase protein solution was subjected to a Superdex 75 (Pharmacia Corporation) column for gel filtration. The protein was eluted with Lysis buffer containing 1M sodium chloride.
The obtained fractions of the integrase protein were collected and preserved at −80° C.
The following DNA synthesized by Greiner was dissolved in TE buffer (10 mM Tris-hydrochloric acid (pH 8.0), 1 mM EDTA) and mixed with donor DNA, target DNA, and each complementary strand (+ and − strands) to 1 μM. The mixture was heated at 95° C. for 5 min, 80° C. for 10 min, 70° C. for 10 min, 60° C. for 10 min, 50° C. for 10 min and 40° C. for 10 min and kept at 25° C. to give a double stranded DNA, which was used for the test. Donor DNA ([…] attached to the 5′ terminal) Donor + strand: 5′-Biotin-ACCCTTTTAGTCAGTGTGGAAAATCTCTAGCA-3′ (SEQ ID NO:1) Donor − strand: 5′-ACTGCTAGAGATTTTCCACACTGACTAAAAG-3′ (SEQ ID NO:2) Target DNA (+, − strands both having digoxigenin added at 3′ terminal) Target + strand: 5′-TGACCAAGGGCTAATTCACT-Dig-3′ (SEQ ID NO:3) Target − strand: 5′-AGTGAATTAGCCCTTGGTCA-Dig-3′ (SEQ ID NO:4)
The donor DNA was diluted with TE buffer to 10 nM, of which 50 μl was added to each well of streptavidin-coated microtiter plate (Roche) and allowed to adsorb at 37° C. for 60 min. The plate was washed with phosphate buffer (Dulbecco's PBS, Sanko Junyaku Co., Ltd.) containing 0.1% Tween 20 and phosphate buffer. Then, an enzyme reaction mixture (70 μl), a test substance (10 μl) diluted with the reaction mixture and 100 μg/ml integrase protein (10 μl) were added to each well and reacted at 37° C. for 60 min.
Then, 50 nM target DNA (10 μl) was added, reacted at 37° C. for 10 min and washed with phosphate buffer containing 0.1% Tween 20 to stop the reaction.
Then, 100 mU/ml peroxidase labeled anti-digoxigenin antibody solution (Roche, 100 μl) was added, and the mixture was reacted at 37° C. for 60 min, followed by washing with phosphate buffer containing 0.1% Tween 20.
A peroxidase color solution (Bio Rad, 100 μl) was added and allowed to react at room temperature for 4 min. The color reaction was stopped by adding 1N sulfuric acid (100 μl). The absorbance at 450 nm was measured.
The HIV integrase inhibitory activity (IC50) of the compound of the present invention was calculated from the inhibition rate according to the following formula. […]

Row | Compound | pIC50
1 | COc1cc2c(cc1C(O)c1cccc(Cl)c1F)c(=O)c(C(=O)O)cn2[C@H](CO)C(C)C (single isomer, unassigned) [Example 7-7] | 7.77
2 | COc1cc2c(cc1C(O)c1cccc(Cl)c1F)c(=O)c(C(=O)O)cn2[C@H](CO)C(C)C (single isomer, unassigned) [Example 7-8] | 7.41
3 | COc1cc2c(cc1Cc1ccc(F)c(Cl)c1)c(=O)c(C(=O)O)cn2[C@H](CO)C(C)C [Example 1-1, 6-(3-chloro-4-fluorobenzyl)-1-((1S)-1-(hydroxymethyl)-2-methylpropyl)-7-methoxy-4-oxo-1,4-dihydroquinoline-3-carboxylic acid] | 7.72
4 | COc1cc2c(cc1Cc1c(F)ccc(Cl)c1F)c(=O)c(C(=O)O)cn2[C@H](CO)C(C)C [Example 1-2, 6-(3-chloro-2,6-difluorobenzyl)-1-((1S)-1-(hydroxymethyl)-2-methylpropyl)-7-methoxy-4-oxo-1,4-dihydroquinoline-3-carboxylic acid] | 8.42
5 | COc1cc2c(cc1Cc1c(O)ccc(Cl)c1F)c(=O)c(C(=O)O)cn2[C@H](CO)C(C)C [Example 1-3, 6-(3-chloro-2-fluoro-6-hydroxybenzyl)-1-((1S)-1-(hydroxymethyl)-2-methylpropyl)-7-methoxy-4-oxo-1,4-dihydroquinoline-3-carboxylic acid] | 8.11
6 | COc1cc2c(cc1Cc1ccc(O)c(Cl)c1F)c(=O)c(C(=O)O)cn2[C@H](CO)C(C)C [Example 1-4, 6-(3-chloro-2-fluoro-4-hydroxybenzyl)-1-((1S)-1-(hydroxymethyl)-2-methylpropyl)-7-methoxy-4-oxo-1,4-dihydroquinoline-3-carboxylic acid] | 7.60
7 | COc1cc2c(cc1Cc1ccc(F)c(Cl)c1F)c(=O)c(C(=O)O)cn2[C@H](CO)C(C)C [Example 1-5, 6-(3-chloro-2,4-difluorobenzyl)-1-((1S)-1-(hydroxymethyl)-2-methylpropyl)-7-methoxy-4-oxo-1,4-dihydroquinoline-3-carboxylic acid] | 8.48
8 | COc1cc2c(cc1Cc1cc(O)cc(Cl)c1F)c(=O)c(C(=O)O)cn2[C@H](CO)C(C)C [Example 1-6, 6-(3-chloro-2-fluoro-5-hydroxybenzyl)-1-((1S)-1-(hydroxymethyl)-2-methylpropyl)-7-methoxy-4-oxo-1,4-dihydroquinoline-3-carboxylic acid] | 8.34
9 | COc1cc2c(cc1Cc1cc(F)c(F)c(Cl)c1F)c(=O)c(C(=O)O)cn2[C@H](CO)C(C)C [Example 1-7, 6-(3-chloro-2,4,5-trifluorobenzyl)-1-((1S)-1-(hydroxymethyl)-2-methylpropyl)-7-methoxy-4-oxo-1,4-dihydroquinoline-3-carboxylic acid] | 8.26
10 | COc1cc2c(cc1Cc1ccc(F)cc1C(F)(F)F)c(=O)c(C(=O)O)cn2[C@H](CO)C(C)C [Example 1-10, 6-(4-fluoro-2-(trifluoromethyl)benzyl)-1-((1S)-1-(hydroxymethyl)-2-methylpropyl)-7-methoxy-4-oxo-1,4-dihydroquinoline-3-carboxylic acid] | 6.55
11 | COc1cc2c(cc1Cc1c(F)cccc1C(F)(F)F)c(=O)c(C(=O)O)cn2[C@H](CO)C(C)C [Example 1-12, 6-(2-fluoro-6-(trifluoromethyl)benzyl)-1-((1S)-1-(hydroxymethyl)-2-methylpropyl)-7-methoxy-4-oxo-1,4-dihydroquinoline-3-carboxylic acid] | 6.59
12 | COc1cc2c(cc1Cc1cccc(Cl)c1F)c(=O)c(C(=O)O)cn2[C@H](CO)C1CCOCC1 [Example 2-1, 6-(3-chloro-2-fluorobenzyl)-1-((1S)-2-hydroxy-1-(tetrahydropyran-4-yl)ethyl)-7-methoxy-4-oxo-1,4-dihydroquinoline-3-carboxylic acid] | 8.34
13 | COc1cc2c(cc1Cc1cccc(Cl)c1F)c(=O)c(C(=O)O)cn2C(CO)C1CCNCC1 (stereo not shown) [Example 2-2, 6-(3-chloro-2-fluorobenzyl)-1-(2-hydroxy-1-(piperidin-4-yl)ethyl)-7-methoxy-4-oxo-1,4-dihydroquinoline-3-carboxylic acid hydrochloride] | 7.92
14 | COc1cc2c(cc1Cc1cccc(Cl)c1F)c(=O)c(C(=O)O)cn2[C@H](CO)CSC [Example 2-3, 6-(3-chloro-2-fluorobenzyl)-1-((1R)-1-(hydroxymethyl)-2-(methylthio)ethyl)-7-methoxy-4-oxo-1,4-dihydroquinoline-3-carboxylic acid] | 8.17
15 | COc1cc2c(cc1Cc1cccc(Cl)c1F)c(=O)c(C(=O)O)cn2[C@H](CO)CS(C)(=O)=O [Example 2-4, 6-(3-chloro-2-fluorobenzyl)-1-((1R)-1-(hydroxymethyl)-2-mesylethyl)-7-methoxy-4-oxo-1,4-dihydroquinoline-3-carboxylic acid] | 8.00
16 | COc1cc2c(cc1Cc1cccc(Cl)c1F)c(=O)c(C(=O)O)cn2[C@H](CO)C(C)(C)S(C)(=O)=O [Example 2-6, 6-(3-chloro-2-fluorobenzyl)-1-((1R)-1-(hydroxymethyl)-2-mesyl-2-methylpropyl)-7-methoxy-4-oxo-1,4-dihydroquinoline-3-carboxylic acid] | 8.42
17 | CSC[C@@H](CO)n1cc(C(=O)O)c(=O)c2cc(Cc3cccc(Cl)c3F)ccc21 [Example 2-7, 6-(3-chloro-2-fluorobenzyl)-1-((1R)-1-(hydroxymethyl)-2-(methylthio)ethyl)-4-oxo-1,4-dihydroquinoline-3-carboxylic acid] | 8.09
18 | CS(=O)(=O)C[C@@H](CO)n1cc(C(=O)O)c(=O)c2cc(Cc3cccc(Cl)c3F)ccc21 [Example 2-8, 6-(3-chloro-2-fluorobenzyl)-1-((1R)-1-(hydroxymethyl)-2-mesylethyl)-4-oxo-1,4-dihydroquinoline-3-carboxylic acid] | 7.70
19 | CC(C)([C@@H](CO)n1cc(C(=O)O)c(=O)c2cc(Cc3cccc(Cl)c3F)ccc21)S(C)(=O)=O [Example 2-10, 6-(3-chloro-2-fluorobenzyl)-1-((1R)-1-(hydroxymethyl)-2-mesyl-2-methylpropyl)-4-oxo-1,4-dihydroquinoline-3-carboxylic acid] | 8.38
20 | COc1cc2c(cc1Cc1cccc(Cl)c1F)c(=O)c(C(=O)O)cn2[C@H](CO)[C@@H](C)OC [Example 2-11, 6-(3-chloro-2-fluorobenzyl)-1-((1R,2R)-1-(hydroxymethyl)-2-methoxypropyl)-7-methoxy-4-oxo-1,4-dihydroquinoline-3-carboxylic acid] | 8.30
21 | COc1cc2c(cc1Cc1cccc(Cl)c1F)c(=O)c(C(=O)O)cn2[C@H](CO)CCSC [Example 2-12, 6-(3-chloro-2-fluorobenzyl)-1-((1S)-1-(hydroxymethyl)-3-(methylthio)propyl)-7-methoxy-4-oxo-1,4-dihydroquinoline-3-carboxylic acid] | 8.24
22 | COc1cc2c(cc1Cc1cccc(Cl)c1F)c(=O)c(C(=O)O)cn2[C@H](CO)CCS(C)(=O)=O [Example 2-13, 6-(3-chloro-2-fluorobenzyl)-1-((1S)-1-(hydroxymethyl)-3-mesylpropyl)-7-methoxy-4-oxo-1,4-dihydroquinoline-3-carboxylic acid] | 8.16
